Measured values from patent US12268674B2, “Mi-2β inhibitor as an immunotherapy agent” (BioVentures, LLC, priority 2021, dated 2025).

Legend:
Assay in all cases: ATPase profile (ATP acyl phosphate probe)
Assay type in all cases: binding
[1] = target: T1, RAD17 (Homo sapiens, UniProt O75943); settings: RAD17, SEQ ID NO: 181, ATP BS
T1 construct: to get the native cell lysate; endogenous in cells; host or cells: A375 cell lysate

[2] = target: T2, DDX28 (Homo sapiens, UniProt Q9NUL7); settings: DDX28, SEQ ID NO: 68, ATP BS
T2 construct: endogenous in cells; host or cells: A375 cell lysate

[3] = target: T3, CCT3 (Homo sapiens, UniProt P49368); settings: CCT3, SEQ ID NO: 52, ATP BS
T3 construct: to get the native cell lysate; host or cells: A375 cell lysate

[4] = target: T4, SPG7 (Homo sapiens, UniProt Q9UQ90); settings: SPG7, SEQ ID NO: 197, ATP BS
T4 construct: to get the native cell lysate; endogenous in cells; host or cells: A375 cell lysate

[5] = target: T5, MTHFD1L (Homo sapiens, UniProt Q6UB35); settings: SEQ ID NO: 126, ATP BS
T5 construct: to get the native cell lysate; endogenous in cells; host or cells: A375

[6] = target: T6, TRA1 (Homo sapiens, UniProt P14625); settings: TRA1, SEQ ID NO: 208, ATP BS
T6 construct: to get the native cell lysate; endogenous in cells; host or cells: A375 cell lysate

[7] = target: T7, UBA2 (Homo sapiens, UniProt Q9UBT2)
T7 construct: to get the native cell lysate; endogenous in cells; host or cells: A375 cell lysate

[8] = target: T8, HSPA8 (Homo sapiens, UniProt P11142)
T8 construct: to get the native cell lysate; endogenous in cells; host or cells: A375

[9] = target: T9, DERA (Homo sapiens, UniProt Q9Y315); settings: SEQ ID NO: 71, ATP BS
T9 construct: endogenous in cells; host or cells: A375 cell lysate

[10] = target: T10, ABCB7 (Homo sapiens, UniProt O75027); settings: ABCB7, SEQ ID NO: 4, ATP BS
T10 construct: to get the native cell lysate; host or cells: A375 cell lysate

[11] = target: T11, CLPX (Homo sapiens, UniProt O76031); settings: SEQ ID NO: 59, ATP BS
T11 construct: endogenous in cells; host or cells: A375 cell lysate

[12] = tested on: BAT1, DDX39; settings: BAT1, DDX39, SEQ ID NO: 50, ATP BS
[13] = target: T12, RFK (Homo sapiens, UniProt Q969G6); settings: SEQ ID NO: 187, ATP BS
T12 construct: to get the native cell lysate; endogenous in cells; host or cells: A375 cell lysate

[14] = target: T13, TOR1A (Homo sapiens, UniProt O14656); settings: SEQ ID NO: 203, ATP BS
T13 construct: to get the native cell lysate; endogenous in cells; host or cells: A375 cell lysate

[15] = target: T14, PSMC5 (Homo sapiens, UniProt P62195); settings: PSMC5, SEQ ID NO: 177, ATP BS
T14 construct: to get the native cell lysate; endogenous in cells; host or cells: A375 cell lysate

[16] = target: PSMD9 (Homo sapiens, UniProt O00233); settings: PSMD9, SEQ ID NO: 179, ATP BS; read-out: Inhibition (%) by 1 μM Z36-MP5
[17] = target: T15, (Homo sapiens, UniProt Q9HCK8); settings: CIID8, SEQ ID NO: 57, ATP BS
T15 construct: to get the native cell lysate; host or cells: A375 cell lysate

[18] = target: T16, GART (Homo sapiens, UniProt P22102)
T16 construct: endogenous in cells; host or cells: A375 cell lysate
T16 sequence (P22102 1-1010): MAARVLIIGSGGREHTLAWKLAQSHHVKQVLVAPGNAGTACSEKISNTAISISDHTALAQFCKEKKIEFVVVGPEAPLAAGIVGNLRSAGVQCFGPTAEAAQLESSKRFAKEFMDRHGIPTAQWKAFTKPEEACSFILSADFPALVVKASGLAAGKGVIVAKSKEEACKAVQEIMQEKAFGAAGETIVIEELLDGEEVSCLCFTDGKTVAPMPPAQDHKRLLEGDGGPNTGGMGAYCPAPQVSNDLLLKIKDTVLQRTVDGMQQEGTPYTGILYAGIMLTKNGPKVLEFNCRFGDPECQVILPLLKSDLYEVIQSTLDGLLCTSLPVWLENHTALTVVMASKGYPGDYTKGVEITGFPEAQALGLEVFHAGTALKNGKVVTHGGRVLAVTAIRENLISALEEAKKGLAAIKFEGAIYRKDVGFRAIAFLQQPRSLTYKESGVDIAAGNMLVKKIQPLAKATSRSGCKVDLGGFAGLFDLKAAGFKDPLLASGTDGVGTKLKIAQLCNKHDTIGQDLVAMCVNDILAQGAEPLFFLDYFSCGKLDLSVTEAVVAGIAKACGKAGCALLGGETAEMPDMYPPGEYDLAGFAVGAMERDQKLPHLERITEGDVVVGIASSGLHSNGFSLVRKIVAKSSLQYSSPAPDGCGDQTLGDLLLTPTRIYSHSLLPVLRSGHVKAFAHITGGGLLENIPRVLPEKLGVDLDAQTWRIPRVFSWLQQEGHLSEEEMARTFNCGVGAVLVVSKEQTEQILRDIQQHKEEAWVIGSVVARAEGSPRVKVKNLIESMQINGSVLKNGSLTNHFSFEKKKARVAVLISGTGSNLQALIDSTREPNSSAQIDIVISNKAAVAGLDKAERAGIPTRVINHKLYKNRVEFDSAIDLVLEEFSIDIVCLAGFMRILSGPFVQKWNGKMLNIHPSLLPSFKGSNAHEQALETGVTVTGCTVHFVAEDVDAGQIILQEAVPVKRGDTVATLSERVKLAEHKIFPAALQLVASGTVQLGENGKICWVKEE

[19] = target: T17, ATG7 (Homo sapiens, UniProt O95352)
T17 construct: to get the native cell lysate; host or cells: A375 cell lysate

[20] = target: T18, MDN1 (Homo sapiens, UniProt Q9NU22); settings: MDN1, SEQ ID NO: 121, ATP BS
T18 construct: to get the native cell lysate; endogenous in cells; host or cells: A375

T7 sequence (Q9UBT2 whole entry): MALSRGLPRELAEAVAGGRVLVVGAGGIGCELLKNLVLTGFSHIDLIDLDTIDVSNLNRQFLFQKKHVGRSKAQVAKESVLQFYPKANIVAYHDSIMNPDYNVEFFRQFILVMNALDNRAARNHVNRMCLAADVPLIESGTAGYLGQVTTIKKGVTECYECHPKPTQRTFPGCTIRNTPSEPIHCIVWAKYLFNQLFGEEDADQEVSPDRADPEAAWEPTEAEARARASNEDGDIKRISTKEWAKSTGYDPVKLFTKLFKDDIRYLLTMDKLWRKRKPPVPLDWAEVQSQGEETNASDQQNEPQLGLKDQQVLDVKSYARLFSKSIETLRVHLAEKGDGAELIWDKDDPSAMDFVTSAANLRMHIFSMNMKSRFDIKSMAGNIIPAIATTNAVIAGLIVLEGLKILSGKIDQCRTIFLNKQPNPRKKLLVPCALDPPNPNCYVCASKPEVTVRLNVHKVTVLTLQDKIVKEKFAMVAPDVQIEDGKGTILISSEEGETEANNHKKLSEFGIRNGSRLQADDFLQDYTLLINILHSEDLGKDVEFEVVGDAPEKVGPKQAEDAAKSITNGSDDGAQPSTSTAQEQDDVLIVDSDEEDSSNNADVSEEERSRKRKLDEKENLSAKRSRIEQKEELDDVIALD
T7 sequence (Q9UBE0 whole entry partner): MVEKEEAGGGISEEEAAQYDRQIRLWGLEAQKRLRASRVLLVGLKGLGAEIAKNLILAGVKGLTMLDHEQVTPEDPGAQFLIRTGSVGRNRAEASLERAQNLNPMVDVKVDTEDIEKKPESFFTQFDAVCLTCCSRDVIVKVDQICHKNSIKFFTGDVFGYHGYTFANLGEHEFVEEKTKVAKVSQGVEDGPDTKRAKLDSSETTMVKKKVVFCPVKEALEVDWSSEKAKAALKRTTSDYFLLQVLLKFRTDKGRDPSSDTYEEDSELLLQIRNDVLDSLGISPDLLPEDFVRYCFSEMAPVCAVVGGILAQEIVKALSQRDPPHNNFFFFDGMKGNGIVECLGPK
T8 sequence (P11142 whole entry): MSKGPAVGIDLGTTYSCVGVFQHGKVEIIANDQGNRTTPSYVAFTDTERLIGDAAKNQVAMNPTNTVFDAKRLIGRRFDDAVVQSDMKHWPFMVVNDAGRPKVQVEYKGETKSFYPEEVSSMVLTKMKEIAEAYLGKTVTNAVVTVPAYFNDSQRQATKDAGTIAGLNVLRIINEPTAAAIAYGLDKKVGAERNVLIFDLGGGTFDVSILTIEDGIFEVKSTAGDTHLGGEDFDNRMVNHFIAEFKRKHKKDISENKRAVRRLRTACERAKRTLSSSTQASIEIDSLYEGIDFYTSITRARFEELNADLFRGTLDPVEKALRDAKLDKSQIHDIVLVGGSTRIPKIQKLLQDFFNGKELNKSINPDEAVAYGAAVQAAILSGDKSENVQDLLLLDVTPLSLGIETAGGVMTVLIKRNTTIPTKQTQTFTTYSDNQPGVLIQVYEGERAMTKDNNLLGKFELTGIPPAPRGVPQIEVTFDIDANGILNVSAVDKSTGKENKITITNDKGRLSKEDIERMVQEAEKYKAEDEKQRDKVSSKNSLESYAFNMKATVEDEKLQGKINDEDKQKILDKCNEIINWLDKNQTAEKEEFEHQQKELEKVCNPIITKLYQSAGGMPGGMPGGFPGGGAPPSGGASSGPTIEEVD
T17 sequence (O95352 whole entry): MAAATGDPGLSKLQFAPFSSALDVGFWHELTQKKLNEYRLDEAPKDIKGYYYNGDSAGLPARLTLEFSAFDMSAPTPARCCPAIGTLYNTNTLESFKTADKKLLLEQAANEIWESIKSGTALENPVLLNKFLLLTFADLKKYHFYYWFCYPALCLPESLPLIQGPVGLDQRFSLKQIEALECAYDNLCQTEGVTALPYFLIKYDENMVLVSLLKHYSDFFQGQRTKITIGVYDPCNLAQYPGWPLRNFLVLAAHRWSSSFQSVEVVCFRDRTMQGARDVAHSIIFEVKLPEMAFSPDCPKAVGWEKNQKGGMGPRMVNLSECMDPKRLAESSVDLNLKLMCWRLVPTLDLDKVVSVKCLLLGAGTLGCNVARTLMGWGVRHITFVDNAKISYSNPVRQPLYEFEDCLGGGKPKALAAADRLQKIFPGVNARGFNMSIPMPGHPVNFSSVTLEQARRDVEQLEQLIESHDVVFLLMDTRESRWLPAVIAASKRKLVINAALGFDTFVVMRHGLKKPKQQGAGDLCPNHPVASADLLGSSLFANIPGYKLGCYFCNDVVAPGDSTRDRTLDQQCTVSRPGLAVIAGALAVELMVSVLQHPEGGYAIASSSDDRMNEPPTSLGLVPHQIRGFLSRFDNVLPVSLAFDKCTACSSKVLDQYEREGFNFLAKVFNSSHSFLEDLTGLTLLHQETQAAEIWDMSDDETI
T6 sequence (P14625 22-803): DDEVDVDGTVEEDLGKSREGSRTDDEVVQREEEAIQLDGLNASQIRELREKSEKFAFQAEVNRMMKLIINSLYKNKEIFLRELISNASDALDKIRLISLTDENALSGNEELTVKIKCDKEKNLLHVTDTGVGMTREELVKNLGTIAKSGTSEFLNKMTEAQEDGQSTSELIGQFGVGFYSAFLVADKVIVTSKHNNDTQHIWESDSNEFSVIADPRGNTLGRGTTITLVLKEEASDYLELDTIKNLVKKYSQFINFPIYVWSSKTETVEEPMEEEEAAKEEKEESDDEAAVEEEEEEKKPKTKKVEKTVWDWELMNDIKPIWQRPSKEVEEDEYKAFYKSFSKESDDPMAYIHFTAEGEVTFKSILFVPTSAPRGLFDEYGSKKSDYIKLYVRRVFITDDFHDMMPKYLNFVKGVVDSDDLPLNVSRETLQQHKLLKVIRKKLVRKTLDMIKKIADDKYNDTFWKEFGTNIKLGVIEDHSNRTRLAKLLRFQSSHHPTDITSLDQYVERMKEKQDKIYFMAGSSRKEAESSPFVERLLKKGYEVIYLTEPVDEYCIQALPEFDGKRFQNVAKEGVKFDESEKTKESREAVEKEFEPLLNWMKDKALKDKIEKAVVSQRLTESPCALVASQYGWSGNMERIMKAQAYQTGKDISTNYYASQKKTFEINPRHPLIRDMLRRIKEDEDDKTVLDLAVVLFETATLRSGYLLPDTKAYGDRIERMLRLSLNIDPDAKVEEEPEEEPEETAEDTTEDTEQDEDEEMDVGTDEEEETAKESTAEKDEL
T13 sequence (O14656 21-332): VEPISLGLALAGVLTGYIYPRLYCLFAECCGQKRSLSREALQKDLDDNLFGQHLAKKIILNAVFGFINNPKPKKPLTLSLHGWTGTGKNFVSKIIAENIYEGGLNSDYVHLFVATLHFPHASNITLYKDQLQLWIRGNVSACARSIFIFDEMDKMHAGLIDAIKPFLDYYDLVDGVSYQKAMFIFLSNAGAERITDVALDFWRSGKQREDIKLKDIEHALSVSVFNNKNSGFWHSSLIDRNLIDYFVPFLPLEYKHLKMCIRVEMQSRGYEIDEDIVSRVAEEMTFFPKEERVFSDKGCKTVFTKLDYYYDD
T10 sequence (O75027 23-752): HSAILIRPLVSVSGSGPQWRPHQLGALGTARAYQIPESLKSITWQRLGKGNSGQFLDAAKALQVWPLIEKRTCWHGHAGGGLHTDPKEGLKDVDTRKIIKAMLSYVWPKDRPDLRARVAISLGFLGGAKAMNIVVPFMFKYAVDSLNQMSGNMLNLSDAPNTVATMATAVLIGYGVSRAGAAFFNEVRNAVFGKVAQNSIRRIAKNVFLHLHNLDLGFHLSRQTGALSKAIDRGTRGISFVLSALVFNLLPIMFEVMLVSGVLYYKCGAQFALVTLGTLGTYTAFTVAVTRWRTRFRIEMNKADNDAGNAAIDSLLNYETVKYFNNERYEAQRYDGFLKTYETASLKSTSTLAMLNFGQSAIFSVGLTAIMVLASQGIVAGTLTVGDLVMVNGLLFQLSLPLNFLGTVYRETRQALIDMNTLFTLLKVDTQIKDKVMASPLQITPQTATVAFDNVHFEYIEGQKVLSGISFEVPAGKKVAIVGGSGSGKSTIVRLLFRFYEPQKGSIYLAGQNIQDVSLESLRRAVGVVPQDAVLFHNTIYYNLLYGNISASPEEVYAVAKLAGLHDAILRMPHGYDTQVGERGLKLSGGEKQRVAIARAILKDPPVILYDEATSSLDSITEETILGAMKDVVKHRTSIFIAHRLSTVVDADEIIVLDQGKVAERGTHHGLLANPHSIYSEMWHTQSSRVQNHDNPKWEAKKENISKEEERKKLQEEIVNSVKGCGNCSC
T12 sequence (Q969G6 whole entry): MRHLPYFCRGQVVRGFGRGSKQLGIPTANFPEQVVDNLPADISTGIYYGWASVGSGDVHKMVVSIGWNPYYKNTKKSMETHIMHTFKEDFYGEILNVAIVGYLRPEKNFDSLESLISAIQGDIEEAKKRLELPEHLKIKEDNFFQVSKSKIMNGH
T11 sequence (O76031 57-633): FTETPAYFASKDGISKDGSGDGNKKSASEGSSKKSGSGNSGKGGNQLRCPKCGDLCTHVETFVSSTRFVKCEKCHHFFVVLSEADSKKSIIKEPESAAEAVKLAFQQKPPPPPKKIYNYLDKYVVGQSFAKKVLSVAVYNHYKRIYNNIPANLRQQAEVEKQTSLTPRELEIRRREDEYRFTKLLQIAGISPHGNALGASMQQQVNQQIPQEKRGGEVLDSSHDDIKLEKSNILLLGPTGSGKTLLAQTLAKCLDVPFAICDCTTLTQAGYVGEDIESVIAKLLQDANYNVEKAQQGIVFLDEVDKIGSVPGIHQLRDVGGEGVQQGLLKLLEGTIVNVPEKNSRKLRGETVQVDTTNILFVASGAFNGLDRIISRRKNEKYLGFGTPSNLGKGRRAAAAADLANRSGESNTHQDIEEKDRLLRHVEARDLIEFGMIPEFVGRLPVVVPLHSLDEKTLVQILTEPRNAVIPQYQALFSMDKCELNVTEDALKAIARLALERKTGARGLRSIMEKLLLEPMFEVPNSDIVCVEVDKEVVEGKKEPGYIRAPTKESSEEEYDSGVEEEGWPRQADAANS

Cn1c(=O)[nH]c2ccc(-c3cccc(C(=O)NC4CCn5ccnc5C4)c3)cc21 (stereo not shown) [Z36-MP5, 3-(3-methyl-2-oxo-2,3-dihydro-1H-benzo[d]imidazol-5-yl)-N-(5,6,7,8-tetrahydroimidazo[1,2-a]pyridin-7-yl)benzamide]
Inhibition (%) by 1 μM Z36-MP5 [1]: 15.62%
Inhibition (%) by 1 μM Z36-MP5 [2]: −5.30%
Inhibition (%) by 1 μM Z36-MP5 [3]: 10.09%
Inhibition (%) by 1 μM Z36-MP5 [4]: 0.12%
Inhibition (%) by 1 μM Z36-MP5 [5]: 1.16%
Inhibition (%) by 1 μM Z36-MP5 [6]: −8.56%
Inhibition (%) by 1 μM Z36-MP5 ([7]; UBA2, SEQ ID NO: 218, ATP BS): 0.55%
Inhibition (%) by 1 μM Z36-MP5 ([7]; UBA2, SEQ ID NO: 219, ATP BS): 7.64%
Inhibition (%) by 1 μM Z36-MP5 ([8]; HSPA8, SEQ ID NO: 106, ATP BS): 3.27%
Inhibition (%) by 1 μM Z36-MP5 ([8]; HSPA8, SEQ ID NO: 107, ATP BS): 4.45%
Inhibition (%) by 1 μM Z36-MP5 [9]: 6.01%
Inhibition (%) by 1 μM Z36-MP5 [10]: 0.34%
Inhibition (%) by 1 μM Z36-MP5 [11]: 0.44%
Inhibition (%) by 1 μM Z36-MP5 [12]: −10.93%
Inhibition (%) by 1 μM Z36-MP5 [13]: 10.06%
Inhibition (%) by 1 μM Z36-MP5 [14]: 4.27%
Inhibition (%) by 1 μM Z36-MP5 [15]: −3.98%
inhibition at 1 µM [16]: 2.13%
Inhibition (%) by 1 μM Z36-MP5 [17]: −44.26%
Inhibition (%) by 1 μM Z36-MP5 ([18]; SEQ ID NO: 80, ATP BS): −8.85%
Inhibition (%) by 1 μM Z36-MP5 ([18]; SEQ ID NO: 81, ATP BS): −7.56%
Inhibition (%) by 1 μM Z36-MP5 ([18]; SEQ ID NO: 82, ATP BS): −2.13%
Inhibition (%) by 1 μM Z36-MP5 ([19]; ATG7, SEQ ID NO: 45, ATP BS): −0.18%
Inhibition (%) by 1 μM Z36-MP5 ([19]; ATG7, SEQ ID NO: 46, ATP BS): −6.20%
Inhibition (%) by 1 μM Z36-MP5 [20]: 3.28%
